Molecular target: T1, human MC4 receptor (Homo sapiens, UniProt P32245)
T1 construct: purchased Biolinks K.K; host or cells: HEK-293
Assay: MC4 receptor binding experiment ([125I]Nle4-D-Phe7-α-MSH displacement)
Details: human MC4 receptor expressing HEK-293 cell membrane; [125I]Nle4-D-Phe7-α-MSH 0.2 nM, 25° C.
Protocol: The MC4 receptor binding experiment was performed according to the method described in Pharmacology & Toxicology, 79, 161-165, 1996. The human MC4 receptor expressing-cell membrane obtained by expressing the human MC4 receptor in a HEK-293 cell was purchased from Biolinks K.K. The cell membrane was homogenized with 50 mM tris hydrochloride buffer (pH 7.4) containing 2 mM ethylenediaminetetraacetic acid, 10 mM calcium chloride, and 100 μM phenylmethylsulfonyl fluoride. The homogenate was centrifuged at 48,000×g at 4° C. for 20 min. The sediment obtained by centrifugation was rehomogenized with the same buffer, and the homogenate was centrifuged at 48,000×g at 4° C. for 20 min. This procedure was repeated twice. The sediment was suspended in 50 mM tris hydrochloride buffer (pH 7.4) containing 2 mM ethylenediaminetetraacetic acid, 10 mM calcium chloride, 100 μM phenylmethylsulfonyl fluoride, and 0.1% bovine serum albumin at a protein concentration of 100 μg/ml, and the suspension was used as a crude membrane preparation for the binding experiment. The crude membrane preparation (0.25 ml, 25 μg protein) was reacted with [^125I]Nle^4-D-Phe^7-α-MSH (final concentration, 0.2 nM) at 25° C. for 120 min. After completion of the reaction, the reaction solution was filtered by suction, using a cell harvester for the receptor binding experiment, onto a GF/C glass fiber filter paper immersed in 50 mM tris hydrochloride buffer (pH 7.4) containing 0.5% bovine serum for 2 h. Radioactivity on the filter paper was measured using a γ counter. The quantity of binding in the presence of 1 μM Nle^4-D-Phe^7-α-MSH was obtained as nonspecific binding, and specific binding was obtained by deducting the nonspecific binding from the total quantity, binding in the absence of 1 μM Nle^4-D-Phe^7-α-MSH. The test drug was dissolved in 100% DMSO solution and added to the membrane preparation at the same time as [^125I]Nle^4-D-Phe^7-α-MSH. The IC50 value was obtained from the inhibition curve in the range of 10^−10 to 10^−5 M. The binding test results of representative compounds are shown in Table 21 as examples.

T1 sequence (P32245 whole entry): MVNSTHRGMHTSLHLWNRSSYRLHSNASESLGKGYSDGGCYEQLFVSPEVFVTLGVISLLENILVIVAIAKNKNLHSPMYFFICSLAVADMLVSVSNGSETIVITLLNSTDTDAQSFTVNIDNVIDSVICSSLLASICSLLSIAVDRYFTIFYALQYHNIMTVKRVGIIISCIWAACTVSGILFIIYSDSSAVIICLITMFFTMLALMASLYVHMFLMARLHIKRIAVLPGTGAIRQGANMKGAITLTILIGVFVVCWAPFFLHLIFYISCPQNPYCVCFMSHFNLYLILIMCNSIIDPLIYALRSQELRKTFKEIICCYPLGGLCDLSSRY

Structure (SMILES)	IC50 [µM]
Cc1cc(N2CCOCC2)cc(N[C@@H]2CN(C(=O)Cc3ccc(OC(F)(F)F)cc3)C[C@H]2O)n1 [Compound 14-001, 1-((3R,4R)-3-hydroxy-4-(6-methyl-4-morpholin-4-ylpyridin-2-ylamino)pyrrolidin-1-yl)-2-(4-trifluoromethoxyphenyl)ethanone]	0.016
CO[C@@H]1CN(C(=O)Cc2ccc(OC(F)(F)F)cc2)C[C@H]1Nc1cc(N2CCOCC2)cc(C)n1 [Compound 14-002]	0.019
CO[C@@H]1CN(C(=O)Cc2ccc(OC(F)(F)F)cc2)C[C@H]1Nc1cc(N2CCS(=O)(=O)CC2)cc(C)n1 [Compound 14-003]	0.0074
O=C1CN(c2nc(N[C@H]3CCN(C(=O)C4(c5ccc(Cl)cc5)CC4)C3)nc3cc(F)ccc23)CCN1 [Compound 15-003]	0.026

Source: patent publication US8044068B2, “Aminopyrrolidine compound” (Taisho Pharmaceutical Co., Ltd, priority 2006, dated 2011)
